These results are taken from article PMC6478789, “A chemical toolbox for the study of bromodomains and epigenetic signaling” (Nature Communications, 2019).

Positions count from the first letter of the chain named. pKd: −log10 of the molar value. Read-outs that look alike come from different tables or passages of the source. Bounds are passed on as bounds.

The target in assay [1] is EP300 (Homo sapiens, UniProt Q09472). The assay can be described thus: Histone acetyltransferase (HAT) activity assay. Type of assay: biochemical. To be noted: read-out: HATs Activity (%).
The target of assay [2] is T1, MYST1 (Homo sapiens, UniProt Q9H7Z6).
T1 sequence (Q9H7Z6 1-458): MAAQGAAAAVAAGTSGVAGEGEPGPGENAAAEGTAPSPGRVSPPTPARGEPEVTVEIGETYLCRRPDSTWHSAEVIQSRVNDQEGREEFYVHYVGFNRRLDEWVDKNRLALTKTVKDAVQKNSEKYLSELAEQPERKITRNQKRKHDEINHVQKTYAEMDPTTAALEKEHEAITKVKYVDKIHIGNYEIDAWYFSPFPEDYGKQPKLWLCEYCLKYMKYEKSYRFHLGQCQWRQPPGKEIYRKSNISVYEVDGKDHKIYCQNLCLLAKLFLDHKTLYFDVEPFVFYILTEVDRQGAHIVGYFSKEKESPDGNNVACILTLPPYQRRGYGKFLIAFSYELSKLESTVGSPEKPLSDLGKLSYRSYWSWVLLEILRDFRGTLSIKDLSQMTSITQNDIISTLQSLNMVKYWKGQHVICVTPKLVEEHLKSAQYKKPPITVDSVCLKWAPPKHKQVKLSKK
The experiment in a line: Histone acetyltransferase (HAT) activity assay. Type of assay: biochemical. Conditions: read-out: HATs Activity (%).

Assay [3] addresses GCN5L2 (Homo sapiens, UniProt Q92830). The assay can be described thus: Histone acetyltransferase (HAT) activity assay. Type of assay: biochemical. To be noted: read-out: HATs Activity (%).
Assay [4] deals with T2, HAT1 (Homo sapiens, UniProt O14929).
T2 sequence (O14929 1-419): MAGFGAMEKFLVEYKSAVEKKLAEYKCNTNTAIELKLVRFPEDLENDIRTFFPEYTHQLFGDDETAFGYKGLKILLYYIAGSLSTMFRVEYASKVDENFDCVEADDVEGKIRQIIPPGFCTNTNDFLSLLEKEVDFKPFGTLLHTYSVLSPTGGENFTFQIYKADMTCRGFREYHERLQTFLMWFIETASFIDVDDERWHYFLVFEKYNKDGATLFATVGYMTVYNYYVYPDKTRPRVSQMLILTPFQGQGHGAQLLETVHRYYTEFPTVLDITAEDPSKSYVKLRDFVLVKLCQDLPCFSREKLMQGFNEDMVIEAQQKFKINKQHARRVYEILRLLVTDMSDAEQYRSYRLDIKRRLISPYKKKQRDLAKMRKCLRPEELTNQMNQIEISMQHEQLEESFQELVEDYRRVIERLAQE
The experiment in a line: Histone acetyltransferase (HAT) activity assay. Format: biochemical. To be noted: read-out: HATs Activity (%).

For assay [5], the target named is MYST3 (Homo sapiens, UniProt Q92794). The experiment in a line: Histone acetyltransferase (HAT) activity assay. Format: biochemical. To be noted: read-out: HATs Activity (%).
The target of assay [6] is BRDT(1) (Homo sapiens, UniProt Q58F21). The assay can be described thus: BROMOscan ligand-binding assay. To be noted: BROMOscan Gene Symbol BRDT(1).
Text: (§1) BROMOscan is a binding assay based on the well-known KINOMEscan technology. This assay measures the binding of a DNA-tagged bromodomain to an immobilized BRD ligand. If an inhibitor is present, it will compete with the bromodomain binding to the immobilized ligand, resulting in reduction of a quantitative PCR (qPCR) signal in a dose-dependent manner.
Assay [7] deals with T3, BRPF3 (Homo sapiens, UniProt Q9ULD4).
T3 sequence (Q9ULD4 589-693 limits assumed): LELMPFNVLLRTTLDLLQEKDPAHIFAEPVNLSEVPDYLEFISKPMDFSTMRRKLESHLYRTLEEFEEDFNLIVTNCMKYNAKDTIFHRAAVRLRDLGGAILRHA
The experiment in a line: BROMOscan ligand-binding assay.
Text: as §1

In assay [8] the target is FALZ (Homo sapiens, UniProt Q12830). The assay can be described thus: BROMOscan ligand-binding assay.
Text: as §1
The target in assay [9] is BRDT(2) (Homo sapiens, UniProt Q58F21). The assay can be described thus: BROMOscan ligand-binding assay. Conditions: BROMOscan Gene Symbol BRDT(2).
Text: as §1
Assay [10] concerns the target T4, TAF1L(2) (Homo sapiens, UniProt Q8IZX4).
T4 sequence (Q8IZX4 1517-1626 limits assumed): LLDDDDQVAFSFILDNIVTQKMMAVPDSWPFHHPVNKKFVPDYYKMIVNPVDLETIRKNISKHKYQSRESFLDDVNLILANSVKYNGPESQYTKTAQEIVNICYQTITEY
The experiment in a line: BROMOscan ligand-binding assay. To be noted: BROMOscan Gene Symbol TAF1L(2).
Text: as §1

Assay [11] has as its target BRD3(2) (Homo sapiens, UniProt Q15059). The experiment in a line: BROMOscan ligand-binding assay. Conditions: BROMOscan Gene Symbol BRD3(2).
Text: as §1
Assay [12] concerns the target T5, BRPF1 (Homo sapiens, UniProt P55201).
T5 sequence (P55201 628-732 limits assumed): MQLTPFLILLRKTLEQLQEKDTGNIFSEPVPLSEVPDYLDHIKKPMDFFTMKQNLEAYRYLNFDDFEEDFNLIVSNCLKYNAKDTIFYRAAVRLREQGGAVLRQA
The experiment in a line: BROMOscan ligand-binding assay. To be noted: BROMOscan Gene Symbol BRPF1.
Text: as §1

Assay [13] deals with T6, TAF1(2) (Homo sapiens, UniProt P21675).
T6 sequence (P21675 1519-1628 limits assumed): T4 sequence (Q8IZX4 1517-1626 limits assumed) with M46V, V51M, I102V, I107L
The experiment in a line: BROMOscan ligand-binding assay. To be noted: BROMOscan Gene Symbol TAF1(2).
Text: as §1

For assay [14], the target named is T7, EP300 (Homo sapiens, UniProt Q09472).
T7 sequence (Q09472 1049-1156 limits assumed): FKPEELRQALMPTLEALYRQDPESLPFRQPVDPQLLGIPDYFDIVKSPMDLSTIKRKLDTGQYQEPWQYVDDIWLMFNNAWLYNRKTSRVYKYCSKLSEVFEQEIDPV
The assay can be described thus: BROMOscan ligand-binding assay. Conditions: BROMOscan Gene Symbol EP300.
Text: as §1

In assay [15] the target is T8, TRIM24(PHD,BRD) (Homo sapiens, UniProt O15164).
T8 sequence (O15164 824-1006 limits assumed): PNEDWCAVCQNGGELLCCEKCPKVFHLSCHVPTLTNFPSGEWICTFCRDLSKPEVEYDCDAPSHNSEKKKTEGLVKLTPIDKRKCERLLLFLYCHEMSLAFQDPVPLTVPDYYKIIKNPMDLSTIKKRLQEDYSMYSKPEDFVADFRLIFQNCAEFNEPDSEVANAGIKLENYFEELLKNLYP
The experiment in a line: BROMOscan ligand-binding assay. To be noted: BROMOscan Gene Symbol TRIM24(PHD,Bromo.).
Text: as §1

Assay [16] deals with WDR9(2) (Homo sapiens, UniProt Q9NSI6). The assay can be described thus: BROMOscan ligand-binding assay. Conditions: BROMOscan Gene Symbol WDR9(2).
Text: as §1
For assay [17], the target named is T9, TRIM33(PHD,BRD) (Homo sapiens, UniProt Q9UPN9).
T9 sequence (Q9UPN9 882-1087 limits assumed): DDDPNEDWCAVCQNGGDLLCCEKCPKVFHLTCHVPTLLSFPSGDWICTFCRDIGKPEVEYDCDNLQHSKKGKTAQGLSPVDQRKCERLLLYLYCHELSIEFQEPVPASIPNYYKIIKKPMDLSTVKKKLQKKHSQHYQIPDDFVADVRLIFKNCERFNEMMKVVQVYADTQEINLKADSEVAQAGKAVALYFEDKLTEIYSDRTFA
The assay can be described thus: BROMOscan ligand-binding assay.
Text: as §1

Assay [18] has as its target T10, BRD9 (Homo sapiens, UniProt Q9H8M2).
T10 sequence (Q9H8M2 136-240 limits assumed): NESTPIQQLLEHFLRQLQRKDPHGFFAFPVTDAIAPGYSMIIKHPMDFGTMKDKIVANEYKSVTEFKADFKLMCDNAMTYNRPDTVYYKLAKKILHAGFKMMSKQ
The experiment in a line: BROMOscan ligand-binding assay. Conditions: BROMOscan Gene Symbol BRD9.
Text: as §1

The target in assay [19] is T11, ATAD2B (Homo sapiens, UniProt Q9ULI0).
T11 sequence (Q9ULI0 951-1066 limits assumed): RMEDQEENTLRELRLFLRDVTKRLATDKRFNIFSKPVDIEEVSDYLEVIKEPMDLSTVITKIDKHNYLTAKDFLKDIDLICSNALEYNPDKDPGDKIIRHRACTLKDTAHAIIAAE
The experiment in a line: BROMOscan ligand-binding assay.
Text: as §1

The target in assay [20] is PBRM1(2) (Homo sapiens, UniProt Q86U86). The experiment in a line: BROMOscan ligand-binding assay. Conditions: BROMOscan Gene Symbol PBRM1(2).
Text: as §1
The target of assay [21] is T12, BAZ2A (Homo sapiens, UniProt Q9UIF9).
T12 sequence (Q9UIF9 1793-1897 limits assumed): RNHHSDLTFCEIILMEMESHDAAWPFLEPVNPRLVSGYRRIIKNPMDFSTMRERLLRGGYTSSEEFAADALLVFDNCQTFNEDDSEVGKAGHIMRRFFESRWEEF
The assay can be described thus: BROMOscan ligand-binding assay. Conditions: BROMOscan Gene Symbol BAZ2A.
Text: as §1

In assay [22] the target is T13, BAZ2B (Homo sapiens, UniProt Q9UIF8).
T13 sequence (Q9UIF8 2060-2164 limits assumed): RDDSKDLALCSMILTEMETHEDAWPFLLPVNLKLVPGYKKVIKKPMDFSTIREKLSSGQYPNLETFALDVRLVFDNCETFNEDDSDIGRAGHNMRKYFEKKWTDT
The experiment in a line: BROMOscan ligand-binding assay.
Text: as §1

The target in assay [23] is T14, BRD1 (Homo sapiens, UniProt O95696).
T14 sequence (O95696 562-666 limits assumed): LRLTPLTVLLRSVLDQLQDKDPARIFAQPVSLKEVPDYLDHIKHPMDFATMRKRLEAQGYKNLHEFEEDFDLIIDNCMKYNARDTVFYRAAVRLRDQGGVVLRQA
The experiment in a line: BROMOscan ligand-binding assay. To be noted: BROMOscan Gene Symbol BRD1.
Text: as §1

The target in assay [24] is T15, ATAD2A (Homo sapiens, UniProt Q6PL18).
T15 sequence (Q6PL18 980-1092 limits assumed): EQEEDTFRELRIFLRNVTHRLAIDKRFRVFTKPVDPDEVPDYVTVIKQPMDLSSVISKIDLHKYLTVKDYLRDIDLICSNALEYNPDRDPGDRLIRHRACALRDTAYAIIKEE
The experiment in a line: BROMOscan ligand-binding assay.
Text: as §1

Assay [25] has as its target BRD2(2) (Homo sapiens, UniProt P25440). The assay can be described thus: BROMOscan ligand-binding assay. To be noted: BROMOscan Gene Symbol BRD2(2).
Text: as §1
Assay [26] addresses BRD3(1) (Homo sapiens, UniProt Q15059). The experiment in a line: BROMOscan ligand-binding assay. To be noted: BROMOscan Gene Symbol BRD3(1).
Text: as §1
The target in assay [27] is BRD2(1) (Homo sapiens, UniProt P25440). The experiment in a line: BROMOscan ligand-binding assay. Conditions: BROMOscan Gene Symbol BRD2(1).
Text: as §1
Where [28] appears, read: read-out: KD (BROMOscan), sheet prints no unit (nM).

Sequence of GCN5L2 (Q92830 whole entry, species assumed): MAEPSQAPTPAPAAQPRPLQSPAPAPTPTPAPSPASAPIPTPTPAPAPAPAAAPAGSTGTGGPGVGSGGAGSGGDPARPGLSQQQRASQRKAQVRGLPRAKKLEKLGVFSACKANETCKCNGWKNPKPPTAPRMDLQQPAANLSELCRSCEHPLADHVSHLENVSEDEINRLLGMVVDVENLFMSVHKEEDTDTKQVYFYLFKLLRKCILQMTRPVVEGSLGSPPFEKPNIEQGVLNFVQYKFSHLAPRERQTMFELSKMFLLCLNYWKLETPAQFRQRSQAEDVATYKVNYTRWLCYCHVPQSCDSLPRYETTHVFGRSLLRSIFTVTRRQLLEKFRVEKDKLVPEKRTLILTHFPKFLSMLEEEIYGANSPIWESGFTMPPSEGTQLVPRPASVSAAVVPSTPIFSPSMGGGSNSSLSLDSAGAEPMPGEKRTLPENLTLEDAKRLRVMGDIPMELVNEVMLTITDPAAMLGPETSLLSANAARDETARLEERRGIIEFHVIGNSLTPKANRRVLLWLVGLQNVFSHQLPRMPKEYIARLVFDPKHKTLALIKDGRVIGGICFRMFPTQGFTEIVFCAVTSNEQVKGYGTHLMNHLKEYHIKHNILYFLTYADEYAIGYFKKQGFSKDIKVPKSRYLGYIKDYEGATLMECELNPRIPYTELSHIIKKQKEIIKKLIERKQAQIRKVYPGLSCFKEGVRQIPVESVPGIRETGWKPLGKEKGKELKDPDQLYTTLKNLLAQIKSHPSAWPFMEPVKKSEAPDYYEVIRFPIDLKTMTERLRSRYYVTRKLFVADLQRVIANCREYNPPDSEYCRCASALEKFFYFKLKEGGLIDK
Sequence of MYST3 (Q92794 whole entry, species assumed): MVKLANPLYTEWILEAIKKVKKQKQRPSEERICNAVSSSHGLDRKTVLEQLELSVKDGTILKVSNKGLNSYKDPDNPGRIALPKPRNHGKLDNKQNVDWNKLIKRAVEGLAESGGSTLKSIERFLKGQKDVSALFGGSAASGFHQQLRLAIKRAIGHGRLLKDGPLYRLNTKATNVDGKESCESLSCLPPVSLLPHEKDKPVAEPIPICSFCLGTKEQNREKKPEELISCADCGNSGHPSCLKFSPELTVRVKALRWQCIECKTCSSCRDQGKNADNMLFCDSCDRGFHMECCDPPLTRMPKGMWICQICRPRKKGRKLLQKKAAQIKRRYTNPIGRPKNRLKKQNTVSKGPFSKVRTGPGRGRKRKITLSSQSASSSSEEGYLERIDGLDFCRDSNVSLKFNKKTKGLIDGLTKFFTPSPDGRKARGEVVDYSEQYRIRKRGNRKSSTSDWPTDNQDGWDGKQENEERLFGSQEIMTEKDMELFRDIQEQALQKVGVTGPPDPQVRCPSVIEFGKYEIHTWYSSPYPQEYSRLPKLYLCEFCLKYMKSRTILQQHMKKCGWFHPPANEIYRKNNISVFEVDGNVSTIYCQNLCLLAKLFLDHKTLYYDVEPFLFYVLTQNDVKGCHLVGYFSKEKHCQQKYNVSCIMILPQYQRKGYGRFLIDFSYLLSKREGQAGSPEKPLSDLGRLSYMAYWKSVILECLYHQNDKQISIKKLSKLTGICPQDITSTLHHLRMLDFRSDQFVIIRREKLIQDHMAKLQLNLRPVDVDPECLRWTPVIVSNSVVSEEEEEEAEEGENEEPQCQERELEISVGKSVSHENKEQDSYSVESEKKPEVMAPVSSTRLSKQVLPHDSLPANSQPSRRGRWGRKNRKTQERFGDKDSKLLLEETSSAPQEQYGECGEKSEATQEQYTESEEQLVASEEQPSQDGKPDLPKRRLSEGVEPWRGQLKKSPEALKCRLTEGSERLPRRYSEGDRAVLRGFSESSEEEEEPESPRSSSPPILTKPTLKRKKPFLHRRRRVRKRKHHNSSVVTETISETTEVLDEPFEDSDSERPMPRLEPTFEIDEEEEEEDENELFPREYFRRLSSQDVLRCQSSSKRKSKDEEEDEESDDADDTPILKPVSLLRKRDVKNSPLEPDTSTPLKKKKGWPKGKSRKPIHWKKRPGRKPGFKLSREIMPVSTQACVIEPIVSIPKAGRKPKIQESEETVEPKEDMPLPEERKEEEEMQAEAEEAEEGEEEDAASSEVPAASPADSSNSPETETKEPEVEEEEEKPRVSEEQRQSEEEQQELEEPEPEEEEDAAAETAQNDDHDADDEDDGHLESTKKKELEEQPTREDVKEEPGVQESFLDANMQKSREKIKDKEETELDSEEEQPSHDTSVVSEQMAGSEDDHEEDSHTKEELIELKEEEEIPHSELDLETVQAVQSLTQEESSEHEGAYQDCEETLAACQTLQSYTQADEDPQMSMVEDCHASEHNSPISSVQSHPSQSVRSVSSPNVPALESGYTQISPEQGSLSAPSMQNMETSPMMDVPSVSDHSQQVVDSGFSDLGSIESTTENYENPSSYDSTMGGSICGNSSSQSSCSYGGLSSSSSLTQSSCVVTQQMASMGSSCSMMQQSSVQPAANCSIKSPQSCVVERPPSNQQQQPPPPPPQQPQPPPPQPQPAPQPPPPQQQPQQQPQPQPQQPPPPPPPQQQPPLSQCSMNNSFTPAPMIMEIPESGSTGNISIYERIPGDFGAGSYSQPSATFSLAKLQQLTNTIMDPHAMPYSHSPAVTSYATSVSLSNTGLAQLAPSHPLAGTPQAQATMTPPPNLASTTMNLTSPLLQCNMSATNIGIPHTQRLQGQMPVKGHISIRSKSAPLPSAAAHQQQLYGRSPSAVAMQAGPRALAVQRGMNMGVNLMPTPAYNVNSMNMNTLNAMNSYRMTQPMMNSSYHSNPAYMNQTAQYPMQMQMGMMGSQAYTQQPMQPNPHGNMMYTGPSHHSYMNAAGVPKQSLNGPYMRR
Sequence of BRD2(1) (P25440 74-180 limits assumed): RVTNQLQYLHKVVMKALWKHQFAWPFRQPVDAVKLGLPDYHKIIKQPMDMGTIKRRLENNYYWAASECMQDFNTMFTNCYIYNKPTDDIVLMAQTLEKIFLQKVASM
Sequence of BRD2(2) (P25440 344-453 limits assumed): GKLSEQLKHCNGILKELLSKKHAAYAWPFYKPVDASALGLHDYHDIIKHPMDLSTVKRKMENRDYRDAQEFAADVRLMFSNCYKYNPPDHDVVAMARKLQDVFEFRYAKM
Sequence of WDR9(2) (Q9NSI6 1313-1418 limits assumed): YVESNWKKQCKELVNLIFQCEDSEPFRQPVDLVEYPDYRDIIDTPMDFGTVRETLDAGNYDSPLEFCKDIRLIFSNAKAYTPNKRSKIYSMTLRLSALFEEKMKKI
Sequence of PBRM1(2) (Q86U86 177-287 limits assumed): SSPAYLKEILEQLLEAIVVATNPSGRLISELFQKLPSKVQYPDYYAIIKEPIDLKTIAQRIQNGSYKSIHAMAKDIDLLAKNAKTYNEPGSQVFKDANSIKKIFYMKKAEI
Sequence of BRD3(1) (Q15059 34-140 limits assumed): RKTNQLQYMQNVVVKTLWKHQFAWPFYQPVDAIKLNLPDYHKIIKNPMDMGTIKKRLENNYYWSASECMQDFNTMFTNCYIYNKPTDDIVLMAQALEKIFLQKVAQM
Sequence of BRD3(2) (Q15059 306-415 limits assumed): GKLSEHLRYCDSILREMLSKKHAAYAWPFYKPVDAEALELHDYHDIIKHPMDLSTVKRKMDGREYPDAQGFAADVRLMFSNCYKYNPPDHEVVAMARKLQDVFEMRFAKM

As to `COc1cc(-c2cn(C)c(=O)c3cnccc23)c(OC)cc1CN(C)C` [BI-9564], the activity at 1 µM in [1] turned out to be 99%; in assay [2] it was 106%; in [3], 102%; in [4], 99%; in [5], 99%. Besides, the activity at 10 µM in assay [1] is 94%; in assay [2], 101%; in assay [3] it was 100%; in assay [4] it was 96%; in assay [5], 100%.
Turning to `COc1ccc(CCc2nc3cc(-c4c(C)noc4C)ccc3n2CCN2CCOCC2)cc1` [CBP30-383], the pKd in [6] was 5.44; in assay [7] (BROMOscan Gene Symbol BRPF3), < 4.30; in assay [8] (BROMOscan Gene Symbol FALZ) it was < 4.30; in assay [9], 4.74; in [10], 4.85; in [11] it was 5.34. Besides, the pKd was 4.96 in assay [12]; 5.80 in assay [13]; 7.36 in assay [14]; 4.59 in [15]; 4.39 in assay [16]; < 4.30 in assay [17] (BROMOscan Gene Symbol TRIM33(PHD,Bromo.)). The pKd was 5.00 in assay [18]; < 4.30 in assay [19] (BROMOscan Gene Symbol ATAD2B); 4.36 in assay [20]; 4.12 in assay [21]; < 4.30 in assay [22] (BROMOscan Gene Symbol BAZ2B); 4.33 in assay [23]. The pKd in assay [24] (BROMOscan Gene Symbol ATAD2A) was < 3.82; in assay [25], 5.44; in assay [26], 5.85; in assay [27], 5.82. Besides, the Kd in [7] (setting [28]), in [8] (setting [28]), in assay [17] (setting [28]), in assay [19] (setting [28]), in assay [22] (setting [28]) and in assay [24] (setting [28]) was > 30000 nM in each case.
Turning to `CC(=O)c1cc(-c2cc(C(=O)NC3CC3)ccc2C)c2ncccn12` [TP-472], the activity at 1 µM is 95% in assay [1]; 100% in assay [2]; 94% in assay [3]; 98% in [4]; 99% in assay [5]. Moreover, the activity at 10 µM in assay [1] turned out to be 96%; in assay [2], 103%; in assay [3], 92%; in [4], 97%; in assay [5] it was 98%.
